{
  "source": "patent US7947312B2",
  "about": "“Method of preparation and composition of a water soluble extract of the bioactive component of the plant species Uncaria for enhancing immune, anti-inflammatory, anti-tumor and DNA repair processes of warm blooded animals” (priority 2002, dated 2011)",
  "key": {"HL-60 W6899 cells": {"test_system": "HL-60 W6899 cells", "assay": "HL-60 bioassay, microculture 5 days, clonogenicity estimated by MTT assay (Table 1)", "assay_type": "cell-based, human", "conditions": "Homo sapiens, HL-60, parameters are approximations", "protocol": "An assay of biological activity of C-MED-100®'s active ingredient is prepared as follows: HL-60 […] cells are exposed in microculture at 5000 cells per well (96-well plates) for 5 days at 37 ? C. in a CO2 incubator. After incubation, the cells are washed with saline and clonogenicity estimated by MTT assay."}, "[1]": {"test_system": "Raji human Burkitt's lymphoma", "assay": "Raji cell proliferation (Coulter count, trypan blue)", "assay_type": "cell-based", "conditions": "48 hours", "protocol": "FIG. 3A illustrates Raji cells (2×10^5) that were cultured in the presence of indicated concentrations of C-MED-100®, QAA or QA. Growth rate was assayed after 48 hours by counting triplicate samples of duplicate cultures in a Coulter cell counter. Results from one representative experiment out of two performed is presented as mean values of cell/ml±standard deviation (S.D).\nFIG. 3B illustrates triplicate samples of cells from duplicate parallel cultures stained with trypan blue at indicated times and counted.\n(§1) Cell cultures: Raji human Burkitt's lymphoma (CCL-86), Jurkat human acute T-cell leukemia (TIB-152), 70Z/3 mouse pre-B lymphocyte cell line (TIB-158), or mouse spleen cells were used in the experiments. The cells were cultured in RPMI medium (Life Technologies) supplemented with 10% FCS, 10 mM HEPES buffer, antibiotics, 50 μM 2-mercaptoethanol and 1 mM sodium pyruvate (all supplements from Life Technologies) at 37° C., 5% CO2. The number of Raji cells in duplicate cultures were determined with a Coulter Z1 cell counter (Beckman Coulter Inc, Fullerton, Calif., USA) three times each. The number of viable and dead cells were determined using trypan blue exclusion, by counting three independent samples from duplicate cultures. […] Proliferation was detected by measuring thymidine incorporation after a 4 hours pulse with 1 μCi ^3[H]-thymidine (Amersham Pharmacia)."}, "Raji cells": {"test_system": "Raji cells", "assay": "Raji cell death and apoptosis (Annexin V / 7AAD flow cytometry)", "assay_type": "cell-based, human", "excerpt": "Cells from the same cultures as in FIG. 3B were stained with Annexin V and 7AAD and analyzed by flow cytometry. The results are presented as the mean number of Annexin V^+ 7AAD^− (apoptotic) or 7AAD^+ (dead) cells±S.D. of duplicates from three experiments with similar results. Statistically significant differences (*p<0.05) and (**p<0.01), compared to Raji cells grown in medium (no drug).\nas §1"}, "mouse spleen cells": {"test_system": "mouse spleen cells", "assay_type": "cell-based", "conditions": "for fraction of apoptotic T cells: Con A stimulated cultures (FIG. 4B); for induction of cell death in mitogen-stimulated spleen cells: mouse", "excerpt": "Cells from parallel cultures were stained with trypan blue and the mean absolute number of viable and dead cells/ml from one out of three similar experiments are shown. […] Aliquots of the above cultures were stained with Annexin V and 7AAD and analyzed by flow cytometry. The results are presented as the mean number of Annexin V^+7AAD^− (apoptotic) and 7AAD^+ (dead) cells/ml±S.D. of duplicates from three experiments with similar results. Statistically significant differences (*p<0.05) and (**p<0.01) compared to the control cultures stimulated with Con A (FIG. 4B) or LPS (FIG. 4C) alone.\nCell cultures: Raji human Burkitt's lymphoma (CCL-86), Jurkat human acute T-cell leukemia (TIB-152), 70Z/3 mouse pre-B lymphocyte cell line (TIB-158), or mouse spleen cells were used in the experiments. The cells were cultured in RPMI medium (Life Technologies) supplemented with 10% FCS, 10 mM HEPES buffer, antibiotics, 50 μM 2-mercaptoethanol and 1 mM sodium pyruvate (all supplements from Life Technologies) at 37° C., 5% CO2. The number of Raji cells in duplicate cultures were determined with a Coulter Z1 cell counter (Beckman Coulter Inc, Fullerton, Calif., USA) three times each. The number of viable and dead cells were determined using trypan blue exclusion, by counting three independent samples from duplicate cultures. Cells were stained with 2 μg/ml 7-amino-actinomycin D (7AAD; Sigma-Aldrich, St Louis, Mo., USA) and with Annexin V (Molecular Probes) according to the manufacturer's protocol and the cells were defined as apoptotic (Annexin V+7AAD^−) or dead (7AAD^+) by flow cytometry. Spleen cells were polyclonally activated with 2.5 μg/ml concanavalin A (Con A; Amersham Pharmacia, Uppsala, Sweden) or 10 μg/ml lipopolysaccharide (LPS; Sigma-Aldrich). PMA (50 ng/ml) and ionomycin (1 μM) (both from Sigma-Aldrich) and pyrollidine dithiocarbamate (PDTC) (100 μM, EMD Bioscience Inc, Calbiochem, San Diego, Calif., USA) were used in some cultures as indicated. Proliferation was detected by measuring thymidine incorporation after a 4 hours pulse with 1 μCi ^3[H]-thymidine (Amersham Pharmacia)."}, "Jurkat T cells": {"test_system": "Jurkat T cells", "assay": "Jurkat T cell death and apoptosis (Annexin V / 7AAD)", "assay_type": "cell-based, human", "conditions": "24 hours, concentrations inhibiting NF-κB", "protocol": "FIG. 5A illustrates Jurkat T that are cells transfected with a NF-κB reporter construct were pre-cultured with various concentrations of QA or C-MED-100® for two hours. PMA (50 ng/ml) and ionomycin (1 μM) were thereafter added and the cells incubated for another six hours. The mean induction of luciferase activity in triplicate cultures from one representative experiment out of four are shown (left panel). QA induced no cell death or apoptosis in Jurkat T cells at concentrations which inhibited NF-κB activity. Jurkat T cells were incubated with various concentrations of QA for 24 hours and thereafter stained with Annexin V and 7AAD before analysis by flow cytometry. […]\nas §1, with “The cells were cultured in RPMI medium (Life Technologies) supplemented with 10% FCS, 10 mM HEPES buffer, antibiotics, 50 μM 2-mercaptoethanol and 1 mM sodium pyruvate (all supplements from Life Technologies) at 37° C., 5% CO2.” left out"}, "[2]": {"test_system": "NF-κB dependent Igκ-chain expression in 70Z/3 cells", "assay": "LPS-induced Igκ-chain expression in 70Z/3 cells (flow cytometry, 7AAD)", "assay_type": "cell-based", "protocol": "FIG. 5B illustrates 70Z/3 cells (2×10^5) that were pretreated for 4 h with C-MED-100® or QA before activation for 20 h with LPS (25 μg/ml). The cells were thereafter stained with 7AAD and Igκ-antibodies and analyzed by flow cytometry. The results are mean Igκ-positive cells±S.D. (left panel) and mean 7AAD negative cells±S.D. (right panel) of duplicate cultures from one representative experiment out of two performed.\nas §1"}, "[3]": {"test_system": "mouse spleen cells activated with Con A or LPS", "assay": "Proliferation of mitogen-stimulated mouse spleen cells (3[H]-thymidine incorporation)", "assay_type": "cell-based", "conditions": "Con A 2.5 μg/ml or LPS 10 μg/ml, 48 hours", "protocol": "FIG. 4A illustrates spleen cells (2×10^5) that were activated with Con A (left; 2.5 μg/ml) or LPS (right; 10 μg/ml) in the presence of indicated concentrations of C-MED-100®, QAA or QA. Proliferation was assayed after 48 hours by ^3[H]-thymidine incorporation in triplicate cultures. Results from one representative experiment out of three are presented as mean values±S.D.\nas §1"}},
  "note": "Counter-ions that a name gives are not always drawn. Like-named read-outs stand apart in the source and are kept apart here.",
  "data": [
    {"compound": "O=C(O)C1(O)CC(O)C(O)C(O)C1", "note": "(centres unmarked) [QA, 1,3,4,5-tetrahydroxy-cyclohexanecarboxylic acid]", "values": [
      {"measurement": "IC50", "setting": "HL-60 W6899 cells; after 1% aqueous ammonia, read-out: Bioassay after 1% aqueous ammonia IC50 HL-60 cells", "value": "> 3000", "unit": "µg/mL"},
      {"measurement": "IC50", "setting": "HL-60 W6899 cells; read-out: Bioassay efficacy using IC50 in HL-60 cells", "value": "> 3000", "unit": "µg/mL"},
      {"measurement": "Raji cell proliferation", "setting": "[1]", "value": "neither inhibited the proliferation of Raji tumor cells"},
      {"measurement": "induction of cell death in Raji cells", "setting": "Raji cells", "value": "do not induce cell death"},
      {"measurement": "fraction of apoptotic T cells", "setting": "mouse spleen cells", "value": "tendency to reduction (p=0.053)"},
      {"measurement": "induction of cell death in mitogen-stimulated spleen cells", "setting": "mouse spleen cells", "value": "neither C-MED-100®, QAA nor QA induce cell death"},
      {"measurement": "cell death in Jurkat T cells", "setting": "Jurkat T cells", "value": "did not induce cell death"},
      {"measurement": "cell death in 70Z/3 cells (7AAD)", "setting": "[2]", "value": "without causing cell death"},
      {"measurement": "LPS-induced Igκ-chain expression", "setting": "[2]; 70Z/3 cells, 4 h pretreatment, LPS 25 μg/ml 20 h", "value": "inhibited Igκ-chain expression to a similar extent"}
    ]},
    {"compound": "O=C(O)[C@]1(O)C[C@@H](O)[C@@H](O)[C@H](O)C1", "note": "[QAA, quinic acid ammonium salt]", "values": [
      {"measurement": "Raji cell proliferation", "setting": "[1]", "value": "inhibited cell proliferation in a dose dependent manner"},
      {"measurement": "induction of cell death in Raji cells", "setting": "Raji cells", "value": "do not induce cell death"},
      {"measurement": "proliferation of mitogen-stimulated mouse lymphocytes", "setting": "[3]", "value": "inhibited cell proliferation in a dose dependent manner"},
      {"measurement": "fraction of apoptotic T cells", "setting": "mouse spleen cells", "value": "significantly reduced the fraction of apoptotic T cells"},
      {"measurement": "induction of cell death in mitogen-stimulated spleen cells", "setting": "mouse spleen cells", "value": "neither C-MED-100®, QAA nor QA induce cell death"}
    ]}
  ]
}
